From patent US20170260185A1 (priority 2014, published 2017)
Like-named read-outs stand apart in the source and are kept apart here.

Key:
[1] = molecular target: human ERG potassium channel (hERG) (Homo sapiens, UniProt Q12809); assay: cell-based
Experimental: Measure of the Effect on hERG Channel by Tail Current Recording Using In Vitro Rapid ICE™
The potency of the compounds of the invention in inhibiting human ERG potassium channel (hERG) tail current is assessed in a recombinant HEK293 cell line stably transfected with hERG cDNA using Rapid ICE™ (Rapid Ion Channel Electrophysiology) assay. Rapid ICE™ is an automated patch-clamp assay utilizing the PatchXpress 7000A system (Molecular Devices Corporation) or the QPatch HTX system (Sophion Bioscience A/S).
Briefly cells are cultivated for 24 to 72 hours before recordings in minimum essential medium supplemented with 10% FBS, 1% non-essential amino acids, 1% sodium pyruvate, 2 mM L-glutamine. The day of the experiment cells are detached with TrypLE and prepared to be loaded on the instrument. For PatchXpress cells are finally resuspended in 150 μl of Extracellular Buffer whereas for QPatch cells are resuspended in 7 ml Serum-Free Media containing 25 mM Hepes and Soybean trypsin inhibitor and immediately placed in the cell storage tank of the machine. The composition of the Extracellular Buffer is (mM): NaCl 137; KCl 4; CaCl2 1.8; MgCl2 1.0; D-glucose 10; N 2 hydroxyethylpiperazine-N′-2-ethanesulfonic acid (HEPES) 10; pH 7.4 with 1 M NaOH. The composition of the pipette solution is (mM): KCl 130; MgCl2 1.0; Ethylene glycol-bis(R-aminoethyl ether)-N,N,N′,N′-tetraacetic acid (EGTA) 5; MgATP 5; HEPES 10; pH 7.2 with 1 M KOH. The voltage protocol includes the following steps: step from −80 mV to −50 mV for 200 ms, +20 mV for 4.8 s, step to −50 mV for 5 s then step to the holding potential of −80 mV. Compounds of the invention are dissolved in DMSO and diluted in Extracellular Buffer to achieve final test concentrations (0.1, 1 and 10 μM) in 0.1% DMSO. The voltage protocol is run and recorded continuously during the experiment. The vehicle, corresponding to 0.1% DMSO in Extracellular Buffer, is then applied for 3 min followed by the test substance in triplicate. The standard combined exposure time is 5 min. The average of tail current amplitude values recorded from 4 sequential voltage pulses is used to calculate for each cell the effect of the test substance by calculating the residual current (% control) compared with vehicle pre-treatment. Data are reported as % inhibition for each concentration tested and IC50 values are estimated using DataXpress or QPatch software. At least two cells are tested, more if results diverge.

[2] = molecular target: T1, human dopamine transporter (DAT) (Homo sapiens, UniProt Q01959); assay: Scintillation Proximity Assay (SPA) competition binding, [3H]WIN-35,428, hDAT-CHO membranes
T1 construct: expressed in transfected cells; host or cells: CHO (hDAT-CHO), membrane preparation
T1 sequence (Q01959 whole entry): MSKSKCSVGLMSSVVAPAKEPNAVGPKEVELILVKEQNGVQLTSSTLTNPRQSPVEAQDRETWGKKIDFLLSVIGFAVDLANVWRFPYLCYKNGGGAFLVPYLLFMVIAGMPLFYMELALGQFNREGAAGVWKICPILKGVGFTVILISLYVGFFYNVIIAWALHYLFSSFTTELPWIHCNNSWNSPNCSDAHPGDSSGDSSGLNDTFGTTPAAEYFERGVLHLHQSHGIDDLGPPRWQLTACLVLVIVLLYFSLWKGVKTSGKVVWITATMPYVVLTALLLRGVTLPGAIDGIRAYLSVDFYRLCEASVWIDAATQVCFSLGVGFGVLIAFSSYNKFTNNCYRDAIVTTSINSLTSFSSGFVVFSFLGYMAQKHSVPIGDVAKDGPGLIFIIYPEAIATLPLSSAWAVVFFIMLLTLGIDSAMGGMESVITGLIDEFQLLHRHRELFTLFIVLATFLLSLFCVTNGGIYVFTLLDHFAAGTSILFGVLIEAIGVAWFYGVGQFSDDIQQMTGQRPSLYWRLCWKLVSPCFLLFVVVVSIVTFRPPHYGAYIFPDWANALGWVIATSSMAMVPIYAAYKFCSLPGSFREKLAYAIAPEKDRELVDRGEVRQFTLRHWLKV

[3] = molecular target: T2, human serotonin transporter (SERT) (Homo sapiens, UniProt P31645); assay: Scintillation Proximity Assay (SPA) competition binding, [3H]citalopram, hSERT-CHO membranes
T2 construct: expressed in transfected cells; host or cells: CHO (hSERT-CHO), membrane preparation
T2 sequence (P31645 whole entry): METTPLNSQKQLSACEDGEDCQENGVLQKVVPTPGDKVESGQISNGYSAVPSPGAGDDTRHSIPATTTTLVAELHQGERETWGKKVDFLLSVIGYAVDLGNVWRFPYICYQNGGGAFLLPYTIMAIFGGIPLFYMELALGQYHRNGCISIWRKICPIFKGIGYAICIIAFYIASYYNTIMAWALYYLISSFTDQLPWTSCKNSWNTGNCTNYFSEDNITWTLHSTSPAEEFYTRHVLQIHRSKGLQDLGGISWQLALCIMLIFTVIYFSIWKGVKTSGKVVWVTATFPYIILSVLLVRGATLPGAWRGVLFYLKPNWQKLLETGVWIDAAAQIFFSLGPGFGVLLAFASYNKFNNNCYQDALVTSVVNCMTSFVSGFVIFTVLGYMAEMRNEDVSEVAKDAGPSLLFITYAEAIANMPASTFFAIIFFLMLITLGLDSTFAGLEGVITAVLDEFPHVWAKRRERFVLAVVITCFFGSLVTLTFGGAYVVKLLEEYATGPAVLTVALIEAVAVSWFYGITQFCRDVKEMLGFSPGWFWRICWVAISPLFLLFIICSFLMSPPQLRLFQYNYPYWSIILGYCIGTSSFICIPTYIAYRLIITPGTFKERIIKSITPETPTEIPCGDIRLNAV

[4] = molecular target: T3, human norepinephrine transporter (NET) (Homo sapiens, UniProt P23975); assay: Scintillation Proximity Assay (SPA) competition binding, [3H]nisoxetine, hNET-CHO membranes
T3 construct: expressed in transfected cells; host or cells: CHO (hNET-CHO), membrane preparation
T3 sequence (P23975 whole entry): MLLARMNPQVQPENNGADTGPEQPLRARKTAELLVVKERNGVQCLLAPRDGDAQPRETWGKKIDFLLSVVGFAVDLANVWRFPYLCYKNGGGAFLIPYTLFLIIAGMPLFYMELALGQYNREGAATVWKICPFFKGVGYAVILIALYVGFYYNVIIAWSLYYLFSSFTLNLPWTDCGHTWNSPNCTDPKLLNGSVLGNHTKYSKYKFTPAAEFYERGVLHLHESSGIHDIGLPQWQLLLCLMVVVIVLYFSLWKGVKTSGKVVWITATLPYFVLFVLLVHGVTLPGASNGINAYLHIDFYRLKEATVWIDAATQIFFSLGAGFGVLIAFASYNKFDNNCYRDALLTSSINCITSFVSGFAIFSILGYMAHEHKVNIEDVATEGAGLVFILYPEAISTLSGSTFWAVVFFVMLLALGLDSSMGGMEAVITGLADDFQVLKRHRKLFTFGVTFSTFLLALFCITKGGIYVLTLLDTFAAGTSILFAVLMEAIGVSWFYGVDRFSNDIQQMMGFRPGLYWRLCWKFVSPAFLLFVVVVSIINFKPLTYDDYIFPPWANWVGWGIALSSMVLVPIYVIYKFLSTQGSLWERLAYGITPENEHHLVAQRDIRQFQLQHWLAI

[5] = read-out: pIC50 DAT (converted)

Chain of human ERG potassium channel (hERG) (Q12809 whole entry): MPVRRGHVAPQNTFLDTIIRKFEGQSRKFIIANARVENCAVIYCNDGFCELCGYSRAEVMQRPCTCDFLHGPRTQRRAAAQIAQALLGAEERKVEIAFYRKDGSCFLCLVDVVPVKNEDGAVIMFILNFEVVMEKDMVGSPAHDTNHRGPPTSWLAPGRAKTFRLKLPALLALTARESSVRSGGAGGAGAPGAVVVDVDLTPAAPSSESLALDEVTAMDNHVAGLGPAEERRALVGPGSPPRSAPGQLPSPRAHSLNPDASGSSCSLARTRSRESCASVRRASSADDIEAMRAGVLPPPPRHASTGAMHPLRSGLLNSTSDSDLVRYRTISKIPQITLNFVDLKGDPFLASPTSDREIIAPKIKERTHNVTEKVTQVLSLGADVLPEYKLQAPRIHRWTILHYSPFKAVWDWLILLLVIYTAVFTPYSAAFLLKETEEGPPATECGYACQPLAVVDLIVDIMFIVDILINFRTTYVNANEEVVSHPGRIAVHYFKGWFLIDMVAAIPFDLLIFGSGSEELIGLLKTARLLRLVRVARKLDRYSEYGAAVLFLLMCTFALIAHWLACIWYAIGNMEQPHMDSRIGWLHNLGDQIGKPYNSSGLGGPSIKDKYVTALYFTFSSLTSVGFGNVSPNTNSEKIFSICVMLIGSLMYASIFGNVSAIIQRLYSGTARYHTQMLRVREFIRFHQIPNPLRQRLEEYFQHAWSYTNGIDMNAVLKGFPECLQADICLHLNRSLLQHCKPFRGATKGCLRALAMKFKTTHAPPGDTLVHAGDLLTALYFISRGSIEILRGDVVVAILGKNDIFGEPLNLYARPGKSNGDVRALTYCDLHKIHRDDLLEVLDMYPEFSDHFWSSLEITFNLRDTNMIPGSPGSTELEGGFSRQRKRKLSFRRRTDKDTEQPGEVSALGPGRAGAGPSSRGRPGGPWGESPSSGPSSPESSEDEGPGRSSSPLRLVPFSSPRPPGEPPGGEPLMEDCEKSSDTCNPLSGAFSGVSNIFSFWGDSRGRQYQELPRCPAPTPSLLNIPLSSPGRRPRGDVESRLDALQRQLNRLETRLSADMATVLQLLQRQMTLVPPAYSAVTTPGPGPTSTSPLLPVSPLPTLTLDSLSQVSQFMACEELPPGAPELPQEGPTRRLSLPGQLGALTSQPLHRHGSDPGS

Structure (SMILES)	IC50 [1] [nM]	IC50 ([2]; pIC50 DAT) [nM]	IC50 [3] [nM]	IC50 [4] [nM]	IC50 [2, 5] [nM]
OC1CCNCC12CCN(C(c1ccc(F)cc1)c1ccc(F)cc1)C2 (centres unmarked) [Example 3, 2-[bis(4-fluorophenyl)methyl]-2,7-diazaspiro[4.5]decan-10-ol]	2510	70.8	12900	4470	–
CN1CCC(O)C2(CCN(C(c3ccc(F)cc3)c3ccc(F)cc3)C2)C1 (centres unmarked) [Example 4, 2-[bis(4-fluorophenyl)methyl]-7-methyl-2,7-diazaspiro[4.5]decan-10-ol]	1580	–	18600	18200	195
Fc1ccc(C(c2ccc(F)cc2)N2CCC3(CCNCC3)C2)cc1 [Example 27, 2-[bis(4-fluorophenyl)methyl]-2,8-diazaspiro[4.5]decane]	2510	–	3470	1700	148
Fc1ccc(C(c2ccc(F)cc2)N2CCC3(CNCCO3)C2)cc1 (centres unmarked) [Example 29, 2-[bis(4-fluorophenyl)methyl]-6-oxa-2,9-diazaspiro[4.5]decane]	6310	–	6920	1380	107
Fc1ccc(C(c2ccc(F)cc2)N2CCC3(CC2)CNCCO3)cc1 [Example 31, 9-[bis(4-fluorophenyl)methyl]-1-oxa-4,9-diazaspiro[5.5]undecane]	3160	46.8	2630	2040	–
